The target in data set [1] is T1, Hypoxia-inducible factor 1-alpha (Homo sapiens, UniProt Q16665). Briefly: Inhibition of human HIF1alpha-mediated transcription expressed in human U251 cells co-transfected with pGL2-TK-HRE incubated for 24 hrs by luciferase reporter gene assay. Format: cell-based, U-251.
Target sequence in this assay (Q16665 whole entry): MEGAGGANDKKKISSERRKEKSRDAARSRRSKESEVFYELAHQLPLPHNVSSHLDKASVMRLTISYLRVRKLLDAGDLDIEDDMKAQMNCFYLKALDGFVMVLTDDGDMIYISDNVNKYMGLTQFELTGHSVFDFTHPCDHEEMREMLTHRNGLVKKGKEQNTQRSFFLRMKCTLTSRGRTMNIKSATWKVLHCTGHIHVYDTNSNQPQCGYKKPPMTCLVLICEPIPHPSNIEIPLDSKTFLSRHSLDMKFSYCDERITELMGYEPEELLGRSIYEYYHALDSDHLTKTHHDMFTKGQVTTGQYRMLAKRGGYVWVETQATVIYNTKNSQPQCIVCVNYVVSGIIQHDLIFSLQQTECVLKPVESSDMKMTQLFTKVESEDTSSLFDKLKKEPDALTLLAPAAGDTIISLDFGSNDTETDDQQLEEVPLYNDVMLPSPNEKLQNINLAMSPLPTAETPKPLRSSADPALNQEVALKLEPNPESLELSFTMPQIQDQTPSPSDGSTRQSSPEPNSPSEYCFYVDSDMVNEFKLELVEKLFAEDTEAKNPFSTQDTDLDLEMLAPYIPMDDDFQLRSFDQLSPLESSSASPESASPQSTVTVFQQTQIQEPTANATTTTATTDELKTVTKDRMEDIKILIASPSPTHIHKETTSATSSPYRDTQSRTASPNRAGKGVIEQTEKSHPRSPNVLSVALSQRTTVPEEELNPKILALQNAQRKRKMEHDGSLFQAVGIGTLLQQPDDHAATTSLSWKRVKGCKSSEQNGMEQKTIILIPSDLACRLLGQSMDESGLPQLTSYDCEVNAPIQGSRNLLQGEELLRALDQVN
Data set [2] concerns U-251. Briefly: Effect on basal transcription in human U251 cells co-transfected with pGL3 incubated for 24 hrs by luciferase reporter gene assay. It counts as ADME, cell-based. Particulars: U-251, 24 h.
Data set [3] can be described thus: Selectivity index, ratio of EC50 for effect on basal transcription in human U251 cells co-transfected with pGL3 to EC50 for Inhibition of human HIF1alpha expressed in human U251 cells co-transfected with pGL2-TK-HRE. Set-up: species or system U-251.
The test system of data set [4] is U-251. Briefly: Inhibition of human HIF1alpha mRNA expression in wild type human U251 cells at 10 uM incubated for 8 hrs. It counts as functional. Conditions: U-251, 8 h.
Data set [5] relates to U-251. Briefly: Inhibition of human HIF1alpha mRNA expression in wild type human U251 cells at 10 uM incubated for 16 hrs. It counts as functional. Particulars: U-251, 16 h.
Data set [6] relates to U-251. As to the kind of experiment: Inhibition of human HIF1alpha mRNA expression in wild type human U251 cells at 1 uM incubated for 8 hrs under hypoxic condition (reference value: 0.7 no unit). Format: functional.
The test system of data set [7] is U-251. Briefly: Inhibition of human HIF1alpha mRNA expression in wild type human U251 cells at 10 uM incubated for 8 hrs under hypoxic condition (reference value: 0.7 no unit). It counts as functional.
For data set [8], the system named is U-251. Briefly: Inhibition of human HIF1alpha mRNA expression in wild type human U251 cells at 1 uM incubated for 16 hrs under hypoxic condition (reference value: 0.9 no unit). Format: functional.
Data set [9] relates to U-251. As to the kind of experiment: Inhibition of human HIF1alpha mRNA expression in wild type human U251 cells at 10 uM incubated for 16 hrs under hypoxic condition (reference value: 0.9 no unit). Format: functional.
Data set [10] deals with U-251. Briefly: Inhibition of human HIF1alpha mRNA expression in wild type human U251 cells at 1 and 10 uM incubated for 8 and 16 hrs under normoxic condition. It counts as functional, cell-based.
The test system of data set [11] is U-251. Briefly: Effect on basal transcription in wild type human U251 cells at 1 and 10 uM incubated for 8 and 16 hrs under normoxic condition. Format: ADME, cell-based. Conditions: u-251, 16 h.
Data set [12] has as its target T1, Hypoxia-inducible factor 1-alpha. Briefly: Inhibition of hypoxia-induced HIF1alpha protein accumulation in wild type human U251 cells at 1 and 10 uM incubated for 8 hrs under hypoxic condition. It counts as cell-based. Particulars: U-251.
Target sequence in this assay (Q16665 whole entry, looked up): as the sequence (Q16665 whole entry) above
The target is the same in data set [13]. As to the kind of experiment: Inhibition of HIF1alpha protein accumulation in wild type human U251 cells at 10 uM incubated for 16 hrs under normoxic condition. Format: cell-based. Particulars: U-251.
Target sequence in this assay (Q16665 whole entry, looked up): as the sequence (Q16665 whole entry) above
Data set [14] concerns U-251. As to the kind of experiment: Inhibition of hypoxia-induced HIF1beta protein accumulation in wild type human U251 cells at 1 and 10 uM incubated for 8 hrs under hypoxic condition. Format: cell-based.
Data set [15] deals with U-251. As to the kind of experiment: Inhibition of hypoxia-induced HIF1beta protein accumulation in wild type human U251 cells at 1 and 10 uM incubated for 8 hrs under normoxic condition. Format: cell-based.
Data set [16] has as its target T1, Hypoxia-inducible factor 1-alpha. As to the kind of experiment: Inhibition of human HIF1alpha-mediated VEGF mRNA expression in wild type human U251 cells at 1 uM incubated for 16 hrs under hypoxic condition. It counts as cell-based. Particulars: U-251.
Target sequence in this assay (Q16665 whole entry, looked up): as the sequence (Q16665 whole entry) above
For data set [17] the target is unchanged. Briefly: Inhibition of human HIF1alpha-mediated VEGF mRNA expression in wild type human U251 cells at 10 uM incubated for 16 hrs under hypoxic condition. Particulars: U-251. Format: cell-based.
Target sequence in this assay (Q16665 whole entry, looked up): as the sequence (Q16665 whole entry) above
The target is the same in data set [18]. As to the kind of experiment: Inhibition of human HIF1alpha-mediated VEGF mRNA expression in wild type human U251 cells at 1 uM incubated for 8 hrs under hypoxic condition (reference value: 3.5 No unit). Format: cell-based. Particulars: U-251.
Target sequence in this assay (Q16665 whole entry, looked up): as the sequence (Q16665 whole entry) above
Data set [19] has the same target. As to the kind of experiment: Inhibition of human HIF1alpha-mediated VEGF mRNA expression in wild type human U251 cells at 10 uM incubated for 8 hrs under hypoxic condition (reference value: 3.5 No unit). It counts as cell-based. Particulars: U-251.
Target sequence in this assay (Q16665 whole entry, looked up): as the sequence (Q16665 whole entry) above
Data set [20] has the same target. As to the kind of experiment: Inhibition of human HIF1alpha-mediated VEGF mRNA expression in wild type human U251 cells at 1 uM incubated for 16 hrs under normoxic condition (Rvb =2.9 No unit). It counts as cell-based. Conditions: U-251.
Data set [21] has the same target. Briefly: Inhibition of human HIF1alpha-mediated VEGF mRNA expression in wild type human U251 cells at 10 uM incubated for 16 hrs under normoxic condition (Rvb =2.9 No unit). Format: cell-based. Conditions: U-251.

Molecules are shown by their SMILES. The source made the active and inactive calls. The rule behind the calls is not given here.

One may read the EC50 as the concentration at which the effect is half-maximal. In general, inhibition refers to the drop in the measured response relative to a control, in per cent.

In the case of `C[C@@]12C[C@@H]3C(=CC[C@@H]4C(=O)NC(=O)[C@@H]43)[C@H](c3ccc(C(F)(F)F)cc3)[C@]1(C)C(=O)c1ccccc1C2=O` (racemic), the values for the concentration giving a half-maximal response (EC50) (in [1]; in the data set with U-251 [2]) were 7.8 µM and more than 20 µM, respectively. Moreover, the “Ratio EC50” value in [3] is given as more than 2.7.

For the compound `C[C@@]12C[C@@H]3C(=CC[C@@H]4C(=O)N(CCC(=O)O)C(=O)[C@@H]43)[C@H](c3ccc(Br)cc3)[C@@H]1C(=O)c1ccccc1C2=O` (racemic), the results for the EC50 (in [1]; with U-251 [2]) were 1.4 µM and more than 20 µM, respectively. In addition, in data set [3], the “Ratio EC50” value is more than 14. Besides, the inhibition at 10 µM in the data set with U-251 [4] came to 43%; in the data set on U-251 [5], 78%. The “fold change (FC)” value in the data set with U-251 [6] is 0.8; in the data set on U-251 [7], 0.4; in the data set on U-251 [8], 0.7; with U-251 [9] it was 0.2; in [18], 2.7; in data set [19], 1.7. In addition, the fold change (FC) in data set [20] turned out to be 1.6; in data set [21], 0.9. The inhibition entry (with U-251 [10]; in [13]) was “Active” each time. For the same compound, the Activity entry in the data set on U-251 [11] is given as “Non-toxic”. In addition, the inhibition result in [12] is “Dose-dependent effect”; in data set [16], 38%; in data set [17], 69%. The inhibition result in the data set with U-251 [14] and with U-251 [15] was “inactive” in each case.

Regarding `COc1cccc2c1C(=O)[C@@H]1C[C@@H]3C(=CC[C@@H]4C(=O)NC(=O)[C@@H]43)[C@H](c3ccc(C(F)(F)F)cc3)[C@]1(C)C2=O` (racemic), the EC50 was 6.7 µM in [1] and more than 20 µM with U-251 [2]. In addition, the “Ratio EC50” value in data set [3] is more than 3.

`C[C@@]12C[C@@H]3C(=CC[C@@H]4C(=O)N(CCC(=O)O)C(=O)[C@@H]43)[C@H](c3ccc(F)cc3)[C@@H]1C(=O)c1ccccc1C2=O` (racemic): the 50% effective concentration (EC50) is 4.1 µM in [1] and 8.7 µM in the data set with U-251 [2]. In data set [3], the “Ratio EC50” value stood at 2.15.

In the data set with U-251 [2], `CC[C@@]1(O)C(=O)OCc2c1cc1n(c2=O)Cc2cc3c(CN(C)C)c(O)ccc3nc2-1` [TOPOTECAN] had an EC50 of more than 20 µM.

As to `COc1cccc2c1C(=O)[C@@H]1C[C@@H]3C(=CC[C@@H]4C(=O)N(CCC(=O)O)C(=O)[C@@H]43)[C@H](c3ccc(Br)cc3)[C@]1(C)C2=O` (racemic), the EC50 in data set [1] is 15.5 µM; in the data set on U-251 [2], more than 20 µM. Further, the “Ratio EC50” value in data set [3] is reported as more than 1.4.

With `C[C@@]12C(=O)c3cccc(O)c3C(=O)[C@@H]1C[C@@H]1C(=CC[C@@H]3C(=O)NC(=O)[C@@H]31)[C@@H]2c1ccc(C(F)(F)F)cc1` (racemic), the values for the EC50 (in data set [1]; in the data set on U-251 [2]) were 6.7 µM and more than 20 µM, respectively. Besides, the “Ratio EC50” value in data set [3] is given as more than 3.

On to `C[C@@]12C[C@@H]3C(=CC[C@@H]4C(=O)NC(=O)[C@@H]43)[C@H](c3ccc(C(F)(F)F)cc3)[C@@H]1C(=O)c1ccccc1C2=O` (racemic), for which the results for the concentration for a half-maximal effect (EC50) (in [1]; with U-251 [2]) were 2.3 µM and more than 20 µM, respectively. The “Ratio EC50” value in [3] is recorded as more than 8.6. The inhibition at 10 µM came to 29% in the data set with U-251 [4] and 45% in the data set on U-251 [5]. Also, the “fold change (FC)” value was found to be 0.8 with U-251 [6]; 0.5 with U-251 [7]; 0.7 in the data set with U-251 [8]; 0.21 in the data set on U-251 [9]; 3 in [18]; 1.6 in data set [19]. For the same compound, the fold change (FC) in [20] stood at 1.9; in [21], 1.2. Further, the inhibition result (in the data set on U-251 [10]; in data set [13]) was “Active” throughout. For the same compound, in the data set on U-251 [11], the Activity result was “Non-toxic”. Further, the figures for the inhibition result in data set [12], in data set [16] and in [17] were “Dose-dependent effect”, 35% and 59%, respectively. Besides, the inhibition entry with U-251 [14] and with U-251 [15] was “inactive” throughout.

The values above are taken from ChEMBL document CHEMBL3585251, “Tetracycline analogues with a selective inhibitory effect on HIF-1” (Medchemcomm, 2014).
